In paper PMC9027599, “Secondary Metabolites in Basil, Bio-Insecticide, Inhibition Effect, and In Silico Molecular Docking against Proteolytic Enzymes of the Red Palm Weevil (Rhynchophorus ferrugineus)” (Plants, 2022):

Legend:
total proteases = test: Total proteolytic activity of fourth instar midgut homogenate, azocasein (in vitro); format: biochemical, Rhynchophorus ferrugineus; conditions: fourth instar larvae midgut homogenate
Experimental: The Lowry technique was used to determine the protein concentrations. Total proteolytic activity was determined in the fourth midgut instar larval (lab strain) homogenate of R. ferrugineus with azocasein in accordance with […] et al. […] [70]. […] Using a Sigma 3k30 cooling centrifuge, reserve homogenates prepared in a previous stage were spun at 5000 rpm for 30 min. Estimates of protein content and total proteolytic enzyme activity were made using the supernatants. The supernatant (10 μL) was incubated at 37 °C for 20 min, and the volume was adjusted to 60 μL using an assay buffer (pH 8), before adding azocasien (200 μL, 2% (w/v)). […] Following that, to activate the reaction, the substrate was introduced 20 min for Leupeptin, so the reaction was halted after 180 min at 37 °C with 300 μL of cool tri-chloroacetic acid (TCA) (10% (v/v). The mixture was centrifuged for 20 min at 5000 rpm (Sigma 3k30 cooling centrifuge). […] To learn more about the proteases found in homogenate preparations of R. ferrugineus fourth midgut larval instars, inhibitors from many different types of mechanisms were used. […] As a control, an assay combination devoid of inhibitors was utilized. The absorbance of the enzymes was determined using an ELISA plate quick reader at various wavelengths. The percentage activity of the control enzyme for each inhibitor was evaluated for each enzyme. […] Larvae were exposed for 24 h to leaf discs treated with extract and compounds.

cysteine protease = test: Cysteine proteinase activity, Z-Phe-Arg-MNA (in vitro); format: biochemical, Rhynchophorus ferrugineus; conditions: fourth instar larvae midgut homogenate
Experimental: The activity of cysteine proteinase was determined in the fourth midgut instar larval homogenate of R. ferrugineus using the substrate Z-Phe-Arg-MNA [1]. Ten larvae were carefully removed, dissected, and rinsed repeatedly with NaCl solution (0.9% (w/v). The midgut instar was homogenized in protease assay buffer (500 µL) [5 mM DTT, 50 mM HEPS (N-2-Hydroxyethyl piperazin-N’-2-ethanesulfonic acid), pH 8.0, and 0.1 percent Triton X-100]. The reaction mixture was centrifuged for 30 min at 5000 rpm (Sigma 3k30 cooling centrifuge). The supernatant was utilized to determine the overall activity of proteolytic enzymes and the protein content. The supernatant (10 µL) was incubated for 30 min at 37 °C, and the volume was adjusted to 60 µL using assay buffer (pH 8) before adding 100 µL of substrate (0.5 mM). Prior to adding the substrate, 10 µL enzyme samples were pre-incubated with iodoacetic acid for 10 min. After 60 min at 37 °C of mixture incubation, the reaction was halted with the addition of 1.5 mL mersalyl (5 mM), 0.02 mg/mL fast garnet reactive solution, and 2% Tween 20. The reaction was centrifuged (at 5000 rpm, 6 min), then the absorbance was determined (at 520 nm). The activity of cysteine proteinase was measured using an ELISA quick plate reader at the OD520/60 min/mg of midgut protein. As a blank, a test mixture devoid of enzyme was used. […] The fourth homogenates of midgut larval were produced as reported before in the experiment for determining enzyme activity. As previously disclosed, the inhibitory experiment was performed using a microplate assay. A series of inhibitor concentrations was created to determine the inhibitor’s maximal inhibitory effect. Leupeptin concentrations of 0.01, 0.05, 0.1, and 1.0 mM, PMSF concentrations of 0.1, 1.0, 10, and 50 mM, TLCK and TPCK concentrations of 0.01, 0.05, 0.1, 1, 50, and 100 mM, EDTA concentrations of 0.1, 1, 10, 50, and 100 mM, and iodoacetic acid concentrations of 0.01, 0.05, 0.1, and 1 mM.
As a control, an assay combination devoid of inhibitors was utilized. The absorbance of the enzymes was determined using an ELISA plate quick reader at various wavelengths. The percentage activity of the control enzyme for each inhibitor was evaluated for each enzyme. Protease activity was assayed in vivo in the R. ferrugineus fourth midgut larval instars, which were treated with 1, 10, 50, 100, 500, 1000, and 5000 mg/L of extracts or compounds, measured as described above. Larvae were exposed for 24 h to leaf discs treated with extract and compounds.

metalloprotease [1] = test: Metalloproteinase activity, azocasein (in vitro); format: biochemical, Rhynchophorus ferrugineus; conditions: fourth instar larvae midgut homogenate
Experimental: (§1) A substrate azocasein assessed the metalloproteinases activity in the fourth midgut instar larval homogenate. Ten larvae were carefully removed, dissected, and rinsed repeatedly with NaCl solution (0.9% (w/v). […] After homogenization, the homogenates were centrifuged at 5000 rpm (for 30 min) using a Sigma centrifuge 3k30, and the supernatant was utilized to determine enzyme activity and protein content. The supernatant per experiment (10 µL) was incubated for 20 min at 37 °C, and the volume was adjusted to 60 µL using assay buffer pH 8 before adding azocasein (200 µL, 2% (w/v)). In all instances, 10 µL enzyme samples were incubated for 10 min (except EDTA with 20 min), and EDTA was used as a blocker of metalloproteinase activity before being added to the specific substrate. The reaction was interrupted with 300 µL of trichloroacetic acid (TCA cold, 10% (v/v) and continued at 37 °C for 180 min. The reaction mixture was then centrifuged at 5000 rpm for 20 min (Sigma centrifuge 3k30), sodium hydroxide (10 µL of 10 N) was incorporated into the supernatant, then absorbance was determined using an ELISA plate reader at 450 nm. As a blank, an assay mixture devoid of the enzyme was devoted, the specific activity was determined using the OD450 mg^−1 protein min^−1 value, and a blank solution sample devoid of enzyme solution was determined. To learn more about the proteases found in homogenate preparations of R. ferrugineus fourth midgut larval instars, inhibitors from many different types of mechanisms were used. […] As a control, an assay combination devoid of inhibitors was utilized. The absorbance of the enzymes was determined using an ELISA plate quick reader at various wavelengths. The percentage activity of the control enzyme for each inhibitor was evaluated for each enzyme. […] Larvae were exposed for 24 h to leaf discs treated with extract and compounds.

metalloprotease [2] = test: Metalloprotease activity of midgut from larvae treated 24 h (in vivo); design: species or system Rhynchophorus ferrugineus; conditions: midgut of fourth instar larvae treated for 24 h
Experimental: as §1

Row | Compound | IC50 against total proteases (in vitro) (total proteases) [µg/mL] | IC50 against cysteine protease (in vitro) (cysteine protease) [µg/mL] | IC50 against metalloprotease (in vitro) (metalloprotease [1]) [µg/mL] | IC50 against metalloprotease (in vivo) (metalloprotease [2]) [µg/mL]
1 | O=C(O)C[C@H](C(=O)O)[C@@H](O)C(=O)O [Isocitric acid] | 143.3 | 119.1 | 127.8 | 169.2
2 | O=C(/C=C/c1ccc(O)c(O)c1)O/C=C\c1ccc(O)c(O)c1 [Nepetoidin B] | 102.4 | 63.3 | 51.1 | 95.8
3 | C[C@@H]1O[C@@H](OC[C@H]2O[C@@H](Oc3c(-c4ccc(O)c(O)c4)oc4cc(O)cc(O)c4c3=O)[C@H](O)[C@@H](O)[C@@H]2O)[C@H](O)[C@H](O)[C@H]1O [Quercetin-3-O-rutinoside] | 82.6 | 53.6 | 37.3 | 612.4
4 | O=C(/C=C/c1ccc(O)c(O)c1)O[C@H](Cc1ccc(O)c(O)c1)C(=O)O [Rosmarinic acid] | 109.6 | 67.8 | 48.4 | 86.7
5 | COc1ccc(-c2cc(=O)c3c(O)c(OC)c(OC)cc3o2)cc1 [Salvigenin, 5-Hydroxy-6,7,4′-trimethoxyflavone] | 72.4 | 89.6 | 49.1 | 113.7
6 | dicaffeoyl-tartaric acid [Chicoric acid] | 63.1 | 81.2 | 44.6 | 74.2
